Test results as given in patent EP0920324B1, “PURE BIOLOGICALLY ACTIVE COLISTIN, ITS COMPONENTS AND A COLISTIN FORMULATION FOR TREATMENT OF PULMONARY INFECTIONS” (PATHOGENESIS CORPORATION, priority 1996, dated 1998).
Where a SMILES comes first, the peptide text is derived from it. Bridges are numbered along the chain shown (N, C = ends). [ ]: non-standard residue; d: D form. The star is where a group is joined. Octanoyl(6-Me) = CCC(C)CCCCC(=O)*; Dab = NCC[CH](N)C(=O)O

How the values were obtained:
[1] = Gravimetric titration with HCl to determine pKa
Experimental: 107 mg of dry free base was suspended in 10.7 ml of deionized water and 1.21 M HCl was added under constant measurement of pH.
In order to determine the pKa of colistin component IV by titration, 107 mg of dry free base was suspended in 10.7 ml of deionized water in a 20 ml glass screwcap vial and stirred by magnetic stirrer. A calibrated Beckman Phi-10 pH meter with a Futura Plus combination electrode was placed in the suspension and the pH of the solution was monitored during the addition of 1.21 M HCl.

Pseudomonas aeruginosa = test: Time kill kinetic studies (bactericidal activity); format: cell-based
Experimental: Henry D. Isenberg, ASM, Washington, DC (1992). The exact procedure is described in Example 14.
Briefly, tests were similar to those used for determining MICs, except that the final test volume was larger (10 mL) to allow sampling at various time points. […] Cultures were incubated at 37°C. At initial set-up and at various time-points, cultures were plated, with or without further dilution, onto sheep blood agar plates. Plates were incubated for 18-24 hours, and the number of CFU/mL was determined and plotted to determine the percentage of surviving organisms and the time required to achieve 99.9% killing. Results are seen in Figure 15.
Colony-forming unit (CFU) per ml were determined and plotted against drug exposure time in hours.
Time kill kinetic studies were performed as described in (Antimicrobial Susceptibility Testing, Section 5.16. Tests to assess bactericidal activity, in Clinical Microbiology Procedure Handbook (supra).
Tests were set in the same way used for determining MICs (Example 13), except that the final test volume was larger (10 mL) to allow sampling at various time points. Cultures were incubated at 37°C. At initial set-up and at various desired time-points, cultures were sampled and plated (with or without further dilution) onto sheep blood agar plates. Plates were incubated for 18-24 hours, and the number of CFU/mL was determined and plotted to determine the percentage of surviving organisms and the time required to achieve 99.9% killing.

[2] = human, in vivo; cited from earlier work
[3] = human, in vivo, iv; cited from earlier work
[4] = Jet nebulization (Pari LC Jet nebulizer), aerosol characterized by laser diffraction particle analyzer; format: physicochemical
Experimental: Colistin component IV sulfate was dissolved in 120 mM sodium chloride, and the pH was adjusted to 7.0 with 1 molar sodium hydroxide.
Four ml of solution to be nebulized was placed in a Pari LC Jet nebulizer fitted with a Pulmonaide Compressor (DeVilbiss Model 5650D) with an air flow rate of 4-6 liters/minute. Aerosols generated are characterized by passing through a laser diffraction particle analyzer (Malvern Mastersizer X). Each formulation was analyzed multiple times to determine reproducibility of results, which were expressed as total obscuration time, mass median average diameter, and respirable fraction.
Results are shown in Figure 18, which is a comparison of the-times required for aerosolization of 4 mL of the three solutions. The two drug solutions were analyzed three times, and saline was analyzed four times. Bars show standard deviations of measurements.
Colistin component IV sulfate or hydrochloride formulations were as described above in Example 15.
Four ml of solution to be nebulized was placed in a Pari LC Jet nebulizer fitted with a Pulmonaide Compressor, DeVilbiss Model 5650D, with an air flow rate of 4-6 liters/minute. Aerosol generated was characterized by passing through a Malvern Mastersizer X laser diffraction particle analyzer. Each formulation was analyzed multiple times to determine reproducibility of results, which were expressed as total obscuration time, mass median particle diameter, and respirable fraction.
Mass median particle diameters were expressed as average ± standard deviation (n) for aerosols.
Average respirable fractions were calculated as average percentage of particles ranging from 1 micron to 6 microns in diameter within the aerosol over time.

[5] = human, in vivo, 1 h; cited from earlier work
[6] = Solution pH monitored over time after dissolution; format: physicochemical; conditions: 10.0, 15.0 and 20.0 mg/ml in water
Experimental: These values correspond to concentrations of 3.7 mg/ml, 5.6 mg/ml and 7.4 mg/ml colistin base equivalent. Solution pH was monitored continuously at various times from 1 minute to 180 minutes and pH values and times were recorded.
Determination of component IV stability at physiologic pH was made by dissolving purified colistin component IV sulfate or hydrochloride at a concentration of 20 mg/ml in sterile water containing 120 mM NaCl. The solution was mixed and pH was monitored. A 10 N NaOH solution was used to adjust the solution pH to 6.95-7.00. Results are seen in Figure 16.
These values correspond to concentrations of 3.7 mg/ml, 5.6 mg/ml and 7.4 mg/ml colistin base equivalent. Solution pH was then monitored continuously using a Beckman Phi-10 pH meter fitted with a Beckman Futura Plus combination electrode calibrated at pH 4.0 and 7.0 as per manufacturer's instructions prior to use. At various times from 1 minute to 180 minutes, pH values and times were recorded.

[7] = average ± standard deviation, n = 3, 20 mg/ml solutions

Compound: CCC(C)CCCCC(=O)NC(CCN)C(=O)NC(C(=O)NC(CCN)C(=O)NC1CCNC(=O)C(C(C)O)NC(=O)C(CCN)NC(=O)C(CCN)NC(=O)C(CC(C)C)NC(=O)C(CC(C)C)NC(=O)C(CCN)NC1=O)C(C)O (centres unmarked) [colistin component IV] ({Octanoyl(6-Me)}-[Dab]T[Dab][Dab][Dab]LL[Dab][Dab]T; lactam 4-C; configuration not given here)
- pKa ([1]; free base suspended in deionized water, titrated with 1.21 M HCl): approximately 9.0
- pKa ([1]; water): ~9

Compound: colimycin
- eradication of the Pseudomonas aeruginosa organism (Pseudomonas aeruginosa; 8 µg/mL, at 4 hours of testing): did not, even at 4 hours of testing, eradicate the Pseudomonas aeruginosa organism
- killing of test organism (Pseudomonas aeruginosa; 16 µg/mL, at 3 hours): over 5 logs
- time at which over 5 logs killing was shown (Pseudomonas aeruginosa; 64µg/mL): 1.5 hours
- concentration required for a similar level of killing (over 5 logs within 2 hours) (Pseudomonas aeruginosa; freshly dissolved): 32 µg/ml
- patients reporting bronchoconstriction response as chest tightness [2]: approximately 65%
- occurrence of nephrotoxicity symptoms [3]: about 5 % cases
- occurrence of neurotoxicity symptoms [3]: about 29 % cases
- mean aerosolization time ([4]; 4 mL of 20 mg/ml solution, colistin component IV sulfate in 120 mM NaCl, isotonic, pH balanced, colimycin in 1/4 N saline, n = 3): 10.53 min
- average respirable fraction (particles ranging from 1 micron to 6 microns in diameter) [4, 7]: 58.77 ± 2.03 percentage
- mass median particle diameter of the aerosol [4, 7]: 4.11 ± 0.29 microns
- drug converted to colistin in an hour [5]: ~3%
- pH of solution within 3 minutes [6]: > 7.5
